According to US8883841B2, “Oncogenic ras-specific cytotoxic compound and methods of use thereof” (The Board of Regents of the University of Texas System, priority 2005, dated 2014):
Like-named read-outs stand apart in the source and are kept apart here.

Experiments:
[1] = test system: H2122; assay: Cell viability, H2122 lung cancer cells; assay type: cell-based, human; conditions: Homo sapiens, NCI-H2122; H2122, Lung; read-out: IC50 (−LogM) (converted)
[2] = test system: H322 cells; assay: Cell viability, H322 lung cancer cells; assay type: cell-based, human; conditions: Homo sapiens, NCI-H322; H322, Lung; read-out: IC50 (−LogM) (converted)
[3] = test system: HT29; assay: NCI in-vitro testing, HT29 (Colon Cancer)
[4] = test system: DU-145; assay: NCI in-vitro testing, DU-145 (Prostate Cancer)
[5] = test system: miapac; assay: Cell viability, miapac pancreatic cancer cells; assay type: cell-based, human; conditions: Homo sapiens, Pancreatic cancer cell; miapac, Pancrease; read-out: IC50 (−LogM) (converted)
[6] = test system: Capanc-1; assay: Cell viability, Capanc-1 pancreatic cancer cells; assay type: cell-based, human; conditions: Homo sapiens, Pancreatic cancer cell; capanc1, Pancrease; read-out: IC50 (−LogM) (converted)
[7] = test system: H1299 cells; assay: Cell viability, H1299 lung cancer cells; assay type: cell-based, human; conditions: Homo sapiens, NCI-H1299; h1299, Lung; read-out: IC50 (−LogM) (converted)
[8] = test system: H1395; assay: Cell viability, H1395 lung cancer cells; assay type: cell-based, human; conditions: Homo sapiens, NCI-H1395; H1395, Lung; read-out: IC50 (−LogM) (converted)
[9] = test system: Hct116; assay: Cell viability, Hct116 colon cancer cells; assay type: cell-based, human; conditions: Homo sapiens, HCT-116; Hct116, Colon; read-out: IC50 (−LogM) (converted)
[10] = test system: DLD1; assay: Cell viability, DLD1 colon cancer cells; assay type: cell-based, human; conditions: Homo sapiens, DLD-1; DLD1, Colon; read-out: IC50 (−LogM) (converted)
[11] = test system: Ovcar3; assay: Cell viability, Ovcar3 ovary cancer cells; assay type: cell-based; conditions: Homo sapiens, OVCAR-3
[12] = test system: MCF7; assay: NCI in-vitro testing, MCF7 (Breast Cancer)
[13] = test system: Heb46; assay: Cell viability, Heb46 kidney cells; assay type: cell-based
[14] = test system: H2009; assay: Cell viability, H2009 lung cancer cells; assay type: cell-based, human; conditions: Homo sapiens, NCI-H2009; H2009, Lung; read-out: IC50 (−LogM) (converted)
[15] = test system: CT116P53; assay: Cell viability, CT116P53 colon cancer cells; assay type: cell-based, human; conditions: Homo sapiens; CT116P53, Colon; read-out: IC50 (−LogM) (converted)
[16] = test system: UACC-62; assay: NCI in-vitro testing, UACC-62 (Melanoma)
[17] = test system: A549 cells; assay: Cell viability, A549 lung cancer cells; assay type: cell-based, human; conditions: Homo sapiens; A549, Lung; read-out: IC50 (−LogM) (converted)
[18] = test system: H1933; assay: Cell viability, H1933 lung cancer cells; assay type: cell-based, human; conditions: Homo sapiens; H1933, Lung; read-out: IC50 (−LogM) (converted)
[19] = test system: SN12C; assay: NCI in-vitro testing, SN12C (Renal Cancer)
[20] = test system: SR; assay: NCI in-vitro testing, SR (Leukemia); assay type: cell-based; conditions: for GI50: Homo sapiens
[21] = test system: Heb44; assay: Cell viability, Heb44 kidney cells; assay type: cell-based
[22] = test system: H226B cells; assay: Cell viability, H226B lung cancer cells; assay type: cell-based, human; conditions: Homo sapiens, H226B, Lung, read-out: IC50 (−LogM) (converted)
[23] = test system: HKE3; assay: Cell viability, HKE3 colon cancer cells; assay type: cell-based, human; conditions: Homo sapiens, HKE3, Colon, read-out: IC50 (−LogM) (converted)
[24] = test system: SF-268; assay: NCI in-vitro testing, SF-268 (CNS Cancer)
[25] = test system: A549CK8; assay: Cell viability, A549CK8 lung cancer cells; assay type: cell-based, human; conditions: Homo sapiens; A549CK8, Lung; read-out: IC50 (−LogM) (converted)
[26] = test system: AsPC-1; assay: Cell viability, AsPC-1 pancreatic cancer cells; assay type: cell-based, human; conditions: Homo sapiens; ASPC1, Pancrease; read-out: IC50 (−LogM) (converted)

OCc1cn(Cc2ccc(Cl)cc2)c2ccccc12 [Oncrasin K060, 1H-Indole-3-methanol, 1-[(4-chlorophenyl)methyl]-]
IC50 [1]: 1 µM
IC50 [2]: 31.6 µM
TGI ([3]; HT20): 2.01E−6 Molar
Percent Growth ([3]; HT20, Log10 Concentration −4.0 (Molar)): −66%
Percent Growth ([3]; HT20, Log10 Concentration −5.0 (Molar)): 29%
Percent Growth ([3]; HT20, Log10 Concentration −6.0 (Molar)): 68%
Percent Growth ([3]; HT20, Log10 Concentration −7.0 (Molar)): 79%
Percent Growth ([3]; HT20, Log10 Concentration −8.0 (Molar)): 103%
GI50 ([3]; Homo sapiens): 1.83 µM
GI50 ([3]; Homo sapiens, HT-29, read-out: Log10 GI50 (converted)): 1.82 µM
CC50 ([3]; Homo sapiens, read-out: LC50): 67.6 µM
TGI ([4]; DU-145): 2.78E−5 Molar
Percent Growth ([4]; DU-145, Log10 Concentration −4.0 Molar): −53%
Percent Growth ([4]; DU-145, Log10 Concentration −5.0 Molar): 42%
Percent Growth ([4]; DU-145, Log10 Concentration −6.0 Molar): 96%
Percent Growth ([4]; DU-145, Log10 Concentration −7.0 Molar): 105%
Percent Growth ([4]; DU-145, Log10 Concentration −8.0 Molar): 108%
GI50 ([4]; Homo sapiens, DU-145): 7.25 µM
CC50 ([4]; Homo sapiens, DU-145, read-out: LC50): 93.3 µM
GI50 ([4]; Homo sapiens, DU-145, read-out: Log10 GI50 (converted)): 7.24 µM
IC50 [5]: < 31.6 µM
IC50 [6]: 10 µM
IC50 [7]: 3.16 µM
IC50 [8]: 20 µM
IC50 [9]: 0.1 µM
IC50 [10]: < 31.6 µM
IC50 [11]: 0.1 µM
GI50 ([12]; Homo sapiens, MCF7): 0.0573 µM
CC50 ([12]; Homo sapiens, MCF7, read-out: LC50): > 100 µM
GI50 ([12]; Homo sapiens, MCF7, read-out: Log10 GI50 (converted)): 0.0676 µM
TGI ([12]; MCF7): 2.75E−5 Molar
Percent Growth ([12]; MCF7, Log10 Concentration −4.0 Molar): −10%
Percent Growth ([12]; MCF7, Log10 Concentration −5.0 Molar): 8%
Percent Growth ([12]; MCF7, Log10 Concentration −6.0 Molar): 10%
Percent Growth ([12]; MCF7, Log10 Concentration −7.0 Molar): 45%
Percent Growth ([12]; MCF7, Log10 Concentration −8.0 Molar): 75%
IC50 [13]: 0.2 µM
IC50 [14]: 15.8 µM
IC50 [15]: < 31.6 µM
GI50 ([16]; Homo sapiens, UACC-62): 0.0451 µM
CC50 ([16]; Homo sapiens, UACC-62, read-out: LC50): 11.4 µM
GI50 ([16]; Homo sapiens, UACC-62, read-out: Log10 GI50 (converted)): 0.0447 µM
TGI ([16]; UACC-62): 8.97E−7 Molar
Percent Growth ([16]; UACC-62, Log10 Concentration −4.0 Molar): −94%
Percent Growth ([16]; UACC-62, Log10 Concentration −5.0 Molar): −47%
Percent Growth ([16]; UACC-62, Log10 Concentration −6.0 Molar): −2%
Percent Growth ([16]; UACC-62, Log10 Concentration −7.0 Molar): 35%
Percent Growth ([16]; UACC-62, Log10 Concentration −8.0 Molar): 79%
IC50 [17]: 2 µM
IC50 [18]: 10 µM
TGI [19]: 1.94E−5 Molar
GI50 ([19]; Homo sapiens): 3.56 µM
CC50 ([19]; Homo sapiens, read-out: LC50): 87.2 µM
GI50 ([19]; Homo sapiens, read-out: Log10 GI50 (converted)): 3.55 µM
Percent Growth ([19]; Log10 Concentration −4.0 Molar): −68%
Percent Growth ([19]; Log10 Concentration −5.0 Molar): 27%
Percent Growth ([19]; Log10 Concentration −6.0 Molar): 78%
Percent Growth ([19]; Log10 Concentration −7.0 Molar): 93%
Percent Growth ([19]; Log10 Concentration −8.0 Molar): 97%
TGI [20]: 1.26E−8 Molar
GI50 ([20]; Leukemia, NCI Mean Graphs, read-out: Log10 GI50 (converted)): < 0.01 µM
GI50 ([20]; read-out: GI50): < 1 µM
Percent Growth ([20]; Log10 Concentration −4.0 Molar): −71%
Percent Growth ([20]; Log10 Concentration −5.0 Molar): −18%
Percent Growth ([20]; Log10 Concentration −6.0 Molar): −71%
Percent Growth ([20]; Log10 Concentration −7.0 Molar): −26%
Percent Growth ([20]; Log10 Concentration −8.0 Molar): 43%
IC50 [21]: 0.01 µM
IC50 ([22]; first H226B line): 0.00251 µM
IC50 ([22]; second H226B line): 0.00316 µM
IC50 ([23]; first HKE3 line): 0.0251 µM
IC50 ([23]; second HKE3 line): < 0.00316 µM
GI50 ([24]; Homo sapiens, SF-268): 12.4 µM
CC50 ([24]; Homo sapiens, SF-268, read-out: LC50): > 100 µM
GI50 ([24]; Homo sapiens, SF-268, read-out: Log10 GI50 (converted)): 12.3 µM
TGI ([24]; SF-268): 4.58E−5 Molar
Percent Growth ([24]; SF-268, Log10 Concentration −4.0 Molar): −30%
Percent Growth ([24]; SF-268, Log10 Concentration −5.0 Molar): 56%
Percent Growth ([24]; SF-268, Log10 Concentration −6.0 Molar): 94%
Percent Growth ([24]; SF-268, Log10 Concentration −7.0 Molar): 98%
Percent Growth ([24]; SF-268, Log10 Concentration −8.0 Molar): 106%
IC50 [25]: 1 µM
IC50 [26]: 2 µM
